The results in this text go back to ChEMBL document CHEMBL1137527, “Synthesis and biological evaluation of norcantharidin analogues: towards PP1 selectivity” (Bioorg Med Chem, 2007).

Structures are written as SMILES.

A short description of experiment [1]: Inhibition of PP1 in rabbit skeletal muscle. It is filed as tissue-based, Oryctolagus cuniculus, Muscle tissue.
A short description of experiment [2]: Selectivity ratio of IC50 for rabbit skeletal muscle PP1 over IC50 for human PP2A. It is filed as tissue-based. To be noted: Muscle tissue.
A short description of experiment [3]: Selectivity ratio of IC50 for rabbit skeletal muscle PP1 over IC50 for bovine brain PP2B. Format: tissue-based. To be noted: Muscle tissue.
Experiment [4] in a line: Inhibition of PP2A in human red blood cells. It is filed as cell-based.
The species entered for another experiment is Bos taurus. The experiment in a line: (§1) Inhibition of bovine brain PP2B.
Experiment [5] is described as follows: as §1. More on the design: species or system Bos taurus.

As to `C[C@@]12C(=O)OC(=O)[C@]1(C)[C@H]1CC[C@@H]2O1` [CANTHARIDIN], the IC50 (commonly the midpoint of a concentration-inhibition curve) in experiment [1] is 7.6 µM; in experiment [4], 0.99 µM; in the experiment filed under Bos taurus, greater than 100 µM. Moreover, the figures for the Ratio IC50 in experiment [2] and in experiment [3] were 7.7 and greater than 0.07, respectively.

Consider `Cc1cc(C)c(NC(=O)C2C(C(=O)O)[C@H]3CC[C@@H]2O3)c(C)c1` (stereo partly specified), for which the IC50 was determined as 48 µM in experiment [1], 85 µM in experiment [4] and 89 µM in experiment [5]. For the same molecule, the Ratio IC50 was 0.56 in experiment [2] and 0.54 in experiment [3].

Turning to `O=C(Nc1ccccc1)C1C(C(=O)O)[C@H]2CC[C@@H]1O2` (stereo partly specified), the IC50 worked out at 24.3 µM in experiment [1] and 7.7 µM in experiment [4]. Moreover, the Ratio IC50 in experiment [2] amounted to 3.2.

Consider `CSc1ccc(NC(=O)C2C(C(=O)O)[C@H]3CC[C@@H]2O3)cc1` (stereo partly specified), for which the IC50 worked out at 10 µM in experiment [1] and 14 µM in experiment [4]. For the same molecule, in experiment [2], the Ratio IC50 amounted to 0.71.

As for `O=C(NCc1ccc(F)c(F)c1)C1C(C(=O)O)[C@H]2CC[C@@H]1O2` (stereo partly specified), the IC50 in experiment [1] and in experiment [4] was 26 µM throughout. In addition, the Ratio IC50 in experiment [2] was 1.

For `O=C(Nc1ccccc1CO)C1C(C(=O)O)[C@H]2CC[C@@H]1O2` (stereo partly specified), the IC50 in experiment [1] stood at 36 µM; in experiment [4], 39 µM. Besides, the Ratio IC50 in experiment [2] was found to be 0.92.

`O=C(Nc1ccc2ccccc2c1)C1C(C(=O)O)[C@H]2CC[C@@H]1O2` (stereo partly specified): the half-maximal inhibitory concentration (IC50) turned out to be 14 µM in experiment [1] and 15 µM in experiment [4]. In addition, the Ratio IC50 in experiment [2] stood at 0.93.

As to `Cc1cccc(NC(=O)C2C(C(=O)O)[C@H]3CC[C@@H]2O3)c1C` (stereo partly specified), the values for the IC50 in experiment [1] and in experiment [4] were 17 µM and 18 µM, respectively. For the same molecule, the Ratio IC50 in experiment [2] was found to be 0.94.

As to `O=C(NCCCCc1ccccc1)C1C(C(=O)O)[C@H]2CC[C@@H]1O2` (stereo partly specified), the results for the IC50 in experiment [1] and in experiment [4] were 75 µM and 95 µM, respectively. For the same molecule, the Ratio IC50 in experiment [2] is 0.79.

For `O=C(NCc1ccccc1)C1C(C(=O)O)[C@H]2CC[C@@H]1O2` (stereo partly specified), the IC50 worked out at 35 µM in experiment [1] and 12 µM in experiment [4]. Also, the Ratio IC50 in experiment [2] is 2.9.

As to `CSc1ccccc1NC(=O)C1C(C(=O)O)[C@H]2CC[C@@H]1O2` (stereo partly specified), the IC50 in experiment [1] came to 23 µM; in experiment [4], 33 µM. The Ratio IC50 in experiment [2] was 0.7.

Turning to `O=C(NCc1ccc(C(F)(F)F)cc1)C1C(C(=O)O)[C@H]2CC[C@@H]1O2` (stereo partly specified), the values for the IC50 in experiment [1] and in experiment [4] were 16 µM and 20 µM, respectively. Moreover, the Ratio IC50 in experiment [2] was determined as 0.8.

As for `O=C(Nc1ccc(N2CCOCC2)cc1)C1C(C(=O)O)[C@H]2CC[C@@H]1O2` (stereo partly specified), the values for the IC50 in experiment [1], in experiment [4] and in experiment [5] were 6.5 µM, 7.9 µM and 42 µM, respectively. Besides, the Ratio IC50 in experiment [2] was found to be 0.82; in experiment [3], 0.15.

With `Cc1cccc(C)c1NC(=O)C1C(C(=O)O)[C@H]2CC[C@@H]1O2` (stereo partly specified), the IC50 in experiment [1] stood at 56 µM; in experiment [4] it was 72 µM. Besides, the Ratio IC50 in experiment [2] was 0.78.

With `C#Cc1cccc(NC(=O)C2C(C(=O)O)[C@H]3CC[C@@H]2O3)c1` (stereo partly specified), the IC50 in experiment [1] turned out to be 17 µM; in experiment [4], 18 µM. In addition, the Ratio IC50 in experiment [2] came to 0.94.

As to `CN(C)CCCNC(=O)C1C(C(=O)O)[C@H]2CC[C@@H]1O2` (stereo partly specified), the IC50 in experiment [1] came out at 43 µM; in experiment [4] it was 57 µM. For the same molecule, the Ratio IC50 in experiment [2] is 0.75.

Consider `CCCCCCOc1ccc(NC(=O)C2C(C(=O)O)[C@H]3CC[C@@H]2O3)cc1` (stereo partly specified), for which the IC50 in experiment [1] amounted to 11 µM; in experiment [4], 15 µM. In experiment [2], the Ratio IC50 worked out at 0.73.

Take `O=C(NCCCc1ccccc1)C1C(C(=O)O)[C@H]2CC[C@@H]1O2` (stereo partly specified): the IC50 in experiment [1] and in experiment [4] was 25 µM throughout. Further, the Ratio IC50 in experiment [2] stood at 1.

For the molecule `COc1ccc(NC(=O)C2C(C(=O)O)[C@H]3CC[C@@H]2O3)cc1` (stereo partly specified), the half-inhibitory concentration (IC50) in experiment [1] was 15 µM; in experiment [4] it was 16 µM. For the same molecule, the Ratio IC50 in experiment [2] stood at 0.94.

`O=C1OC(=O)C2C3CCC(O3)C12` (stereo unspecified) [DEMETHYL-CANTHARIDIN]: the IC50 in experiment [1] amounted to 10.3 µM; in experiment [4], 2.69 µM; in experiment [5] it was 31 µM. Besides, the Ratio IC50 in experiment [2] worked out at 3.8; in experiment [3], 0.33.

In the case of `CN(C)CCNC(=O)C1C(C(=O)O)[C@H]2CC[C@@H]1O2` (stereo partly specified), the IC50 in experiment [1] is 67 µM; in experiment [4], greater than 100 µM. In experiment [2], the Ratio IC50 was less than 0.67.

For `CC(C)(C)c1ccc(NC(=O)C2C(C(=O)O)[C@H]3CC[C@@H]2O3)c(C(C)(C)C)c1` (stereo partly specified), the IC50 in experiment [1] and in experiment [4] was 8.2 µM in each case. Also, the Ratio IC50 in experiment [2] amounted to 1.

With `O=C(Nc1cccc(CO)c1)C1C(C(=O)O)[C@H]2CC[C@@H]1O2` (stereo partly specified), the IC50 was found to be 15 µM in experiment [1] and 7 µM in experiment [4]. Moreover, the Ratio IC50 in experiment [2] was 2.14.

With `CC(C)(C)c1ccc(NC(=O)C2C(C(=O)O)[C@H]3CC[C@@H]2O3)cc1` (stereo partly specified), the figures for the IC50 in experiment [1] and in experiment [4] were 10 µM and 11 µM, respectively. Moreover, the Ratio IC50 in experiment [2] worked out at 0.91.

As for `O=C(NCCN1CCOCC1)C1C(C(=O)O)[C@H]2CC[C@@H]1O2` (stereo partly specified), the IC50 turned out to be 30 µM in experiment [1] and 43 µM in experiment [4]. Further, the Ratio IC50 in experiment [2] is 0.7.

Consider `CCc1ccccc1NC(=O)C1C(C(=O)O)[C@H]2CC[C@@H]1O2` (stereo partly specified), for which the IC50 in experiment [1] is 51 µM; in experiment [4] it was 24 µM. Besides, in experiment [2], the Ratio IC50 came to 2.12.
